Experiment [1] deals with IL-2-induced JAK1/JAK3 signal pathway. Description: IL-2-induced proliferation of KHYG-1 cells (JAK1/JAK3 signal). It is filed as cell-based, human. To be noted: Homo sapiens; KHYG-1 cell proliferation, IL-2 10 ng/mL, 72 hours; read-out: Inhibition activity IC50 on IL-2-induced JAK1/JAK3 signal pathway. The gist of the method:
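Controls were wells lacking both compound and cytokine (0%) and compound-free IL-2 wells (100%). C50 was calculated from inhibition rates across doses.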

Experiment [2] relates to EPO-induced JAK2 signal pathway. Description: EPO-induced proliferation of UT-7 cells (JAK2 signal). It counts as cell-based, human. To be noted: Homo sapiens, UT7; UT-7 cell proliferation, EPO 10 ng/mL, 72 hours; read-out: Inhibition activity IC50 on EPO-induced JAK2 signal pathway. In short, it runs like this: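 […] was derived from inhibition rates across doses, scaled between wells lacking compound and cytokine (0) and EPO without compound (100), using alamarBlue fluorescence at Ex530/Em590. Compound (final 0-10000 nM) and 10 ng/mL EPO were given to UT-7 cells at 15000 per well for 72 h at 37° C.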

For `CCONC(=O)c1cnc(Nc2nc(C)cc(C)n2)cc1Nc1ccc(C2CC2)cc1N(C)S(C)(=O)=O` [Example 123, 4-((4-cyclopropyl-2-(N-methylmethanesulfonamido)phenyl)amino)-6-((4,6-dimethylpyrimidin-2-yl)amino)-N-ethoxy nicotinamide], the IC50 in experiment [1] and in experiment [2] was above 10 µM each time.

On to `CCONC(=O)c1cnc(Nc2ncccn2)cc1Nc1ccc(C2CC2)cc1N(C)S(C)(=O)=O` [Example 124, 4-((4-cyclopropyl-2-(N-methylmethanesulfonamido)phenyl)amino)-N-ethoxy-6-(pyrimidin-2-ylamino)nicotinamide], for which the IC50 in experiment [1] and in experiment [2] was above 10 µM in each case.

On to `CCONC(=O)c1cnc(Nc2ccnn2C)cc1Nc1ccc(N2CCOCC2)cc1N(C)S(C)(=O)=O` [Example 135], for which the IC50 in experiment [1] and in experiment [2] was above 10 µM throughout.

Regarding `CCONC(=O)c1cnc(Nc2ccn(C)n2)cc1Nc1ccc(N2CCOCC2)cc1N(C)S(C)(=O)=O` [Example 137], the IC50 in experiment [1] and in experiment [2] was above 10 µM in each case.

As to `CCONC(=O)c1cnc(Nc2cnn(C)c2)cc1Nc1ccc(C2CC2)cc1N(C)S(C)(=O)=O` [Example 140, 4-((4-cyclopropyl-2-(N-methylmethanesulfonamido)phenyl)amino)-N-ethoxy-6-((1-methyl-1H-pyrazol-4-yl)amino)nicotinamide], the IC50 in experiment [1] and in experiment [2] was above 10 µM each time.

As to `CCONC(=O)c1cnc(Nc2cc(C)ccn2)cc1Nc1ccc(C2CC2)cc1N(C)S(C)(=O)=O` [Example 147, 4-((4-cyclopropyl-2-(N-methylmethanesulfonamido)phenyl)amino)-N-ethoxy-6-((4-methylpyridin-2-yl)amino)nicotinamide], the IC50 in experiment [1] and in experiment [2] was above 10 µM each time.

Take `CCONC(=O)c1cnc(Nc2ccc(C)nc2)cc1Nc1ccc(C2CC2)cc1N(C)S(C)(=O)=O` [Example 148, 4-((4-cyclopropyl-2-(N-methylmethanesulfonamido)phenyl)amino)-N-ethoxy-6-((6-methylpyridin-3-yl)amino)nicotinamide]: the IC50 in experiment [1] and in experiment [2] was above 10 µM in each case.

Regarding `CCONC(=O)c1cnc(Nc2cc(C)nc(C)n2)cc1Nc1cc(Cl)c(C2CC2)cc1N(C)S(C)(=O)=O` [Example 149], the IC50 in experiment [1] and in experiment [2] was above 10 µM in each case.

For `CCONC(=O)c1cnc(NC(=O)C2CC2)cc1Nc1cc(Cl)c(C2CC2)cc1N(C)S(C)(=O)=O` [Example 150, 4-((5-chloro-4-cyclopropyl-2-(N-methylmethanesulfonamido)phenyl)amino)-6-(cyclopropylcarboxamido)-N-ethoxy nicotinamide], the IC50 in experiment [1] and in experiment [2] was above 10 µM throughout.

With `CCONC(=O)c1cnc(Nc2ccc(C3CC3)cn2)cc1Nc1ccc(Cl)cc1N(C)S(C)(=O)=O` [Example 152, 4-((4-chloro-2-(N-methylmethanesulfonamido)phenyl)amino)-6-((5-cyclopropylpyridin-2-yl)amino)-N-ethoxy nicotinamide], the IC50 in experiment [1] and in experiment [2] was above 10 µM in each case.

`CCONC(=O)c1cnc(Nc2nccs2)cc1Nc1ccc(C2CC2)cc1N(C)S(C)(=O)=O` [Example 158, 4-((4-cyclopropyl-2-(N-methylmethanesulfonamido)phenyl)amino)-N-ethoxy-6-(thiazol-2-ylamino)nicotinamide]: the IC50 in experiment [1] and in experiment [2] was above 10 µM throughout.

For the compound `CCONC(=O)c1cnc(Nc2ccnn2C)cc1Nc1ccc(C2CC2)cc1N(C)S(C)(=O)=O` [Example 161, 4-((4-cyclopropyl-2-(N-methylmethanesulfonamido)phenyl)amino)-N-ethoxy-6-((1-methyl-1H-pyrazol-5-yl)amino)nicotinamide], the IC50 in experiment [1] and in experiment [2] was above 10 µM in each case.

With `C#Cc1ccc(Nc2cc(Nc3ncccn3)ncc2C(=O)NOCC)c(N(C)S(C)(=O)=O)c1` [Example 163, N-ethoxy-4-((4-ethynyl-2-(N-methylmethanesulfonamido)phenyl)amino)-6-(pyrimidin-2-ylamino)nicotinamide], the IC50 in experiment [1] and in experiment [2] was above 10 µM in each case.

For the compound `C#Cc1ccc(Nc2cc(Nc3nc(C)cc(C)n3)ncc2C(=O)NOCC)c(N(C)S(C)(=O)=O)c1` [Example 164, 6-((4,6-dimethylpyrimidin-2-yl)amino)-N-ethoxy-4-((4-ethynyl-2-(N-methylmethanesulfonamido)phenyl)amino)nicotinamide], the IC50 in experiment [1] and in experiment [2] was above 10 µM in each case.

As for `CCONC(=O)c1cnc(Nc2nc(C)cs2)cc1Nc1ccc(C)cc1N(C)S(C)(=O)=O` [Example 165, N-ethoxy-4-((4-methyl-2-(N-methylmethanesulfonamido)phenyl)amino)-6-((4-methylthiazol-2-yl)amino)nicotinamide], the IC50 in experiment [1] and in experiment [2] was above 10 µM throughout.

For `CCONC(=O)c1cnc(Nc2ccnn2C)cc1Nc1cc(F)c(C2CC2)cc1N(C)S(C)(=O)=O` [Example 168, 4-((4-cyclopropyl-5-fluoro-2-(N-methylmethanesulfonamido)phenyl)amino)-N-ethoxy-6-((1-methyl-1H-pyrazol-5-yl)amino)nicotinamide], the IC50 in experiment [1] and in experiment [2] was above 10 µM each time.

Turning to `CCONC(=O)c1cnc(Nc2ncccn2)cc1Nc1cc(F)c(C2CC2)cc1N(C)S(C)(=O)=O` [Example 169, 4-((4-cyclopropyl-5-fluoro-2-(N-methylmethanesulfonamido)phenyl)amino)-N-ethoxy-6-(pyrimidin-2-ylamino)nicotinamide], the IC50 in experiment [1] and in experiment [2] was above 10 µM in each case.

`CCONC(=O)c1cnc(Nc2ncc(C)s2)cc1Nc1ccc(OC)cc1N(C)S(C)(=O)=O` [Example 172, N-ethoxy-4-((4-methoxy-2-(N-methylmethanesulfonamido)phenyl)amino)-6-(5-methylthiazol-2-ylamino)nicotinamide]: the IC50 in experiment [1] and in experiment [2] was above 10 µM throughout.

In the case of `CCONC(=O)c1cnc(Nc2cc(C)nc(C)n2)cc1Nc1ccc(Cl)cc1N(C)S(=O)(=O)C1CC1` [Example 184], the IC50 in experiment [1] and in experiment [2] was above 10 µM throughout.

As to `CCONC(=O)c1cnc(Nc2cc(C)nc(C)c2)cc1Nc1ccc(C2CC2)cc1N(C)S(C)(=O)=O` [Example 221], the IC50 in experiment [1] and in experiment [2] was above 10 µM in each case.

Regarding `CCONC(=O)c1cnc(Nc2ncc(F)cc2F)cc1Nc1cc(F)c(C(C)C)cc1N(C)S(C)(=O)=O` [Example 228, 6-((3,5-difluoropyridin-2-yl)amino)-N-ethoxy-4-((5-fluoro-4-isopropyl-2-(N-methylmethanesulfonamido)phenyl)amino)nicotinamide], the IC50 in experiment [1] and in experiment [2] was above 10 µM throughout.

For the compound `CCONC(=O)c1nnc(Nc2cc(C)nc(C)n2)cc1Nc1cccc(-c2ncc(C)cn2)c1OC` [Example 276, 6-((2,6-dimethylpyrimidin-4-yl)amino)-N-ethoxy-4-((2-methoxy-3-(5-methylpyrimidin-2-yl)phenyl)amino)pyridazine-3-carboxamide], the IC50 in experiment [1] and in experiment [2] was above 10 µM throughout.

Source of the values: patent US20240101548A1, “HYDROXAMATE COMPOUND, PREPARATION METHOD THEREFOR AND APPLICATION THEREOF” (SHENZHEN CHIPSCREEN BIOSCIENCES CO., LTD., priority 2020, published 2024).
